In general, IC50 refers to the concentration at which inhibition is half-maximal. As usually defined, the MIC is the lowest concentration that inhibits growth of the organism.

For one assay, the target named is ClpP1P2 (Mycobacterium tuberculosis (strain ATCC 25618 / H37Rv), UniProt P9WPC3+P9WPC5). The assay is described as follows: Inhibition of N-terminal His6-SUMO-tagged Mtb ClpP1 (7 to 200 residues)/ClpP2 (13 to 214 residues) complex expressed in Escherichia coli BL21(DE3) using FITC-casein as substrate measured for 1 hr in presence of Bz-LL/ATP by fluorescence based assay.
Sequence of ClpP1P2 (P9WPC5 whole entry, the tested form may be a part): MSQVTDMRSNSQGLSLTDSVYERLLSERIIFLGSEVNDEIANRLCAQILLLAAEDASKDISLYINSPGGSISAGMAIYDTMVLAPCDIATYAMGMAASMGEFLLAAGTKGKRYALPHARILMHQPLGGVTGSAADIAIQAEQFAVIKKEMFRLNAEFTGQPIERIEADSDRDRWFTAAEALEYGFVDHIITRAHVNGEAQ
Sequence of ClpP1P2 (P9WPC3 whole entry, the tested form may be a part): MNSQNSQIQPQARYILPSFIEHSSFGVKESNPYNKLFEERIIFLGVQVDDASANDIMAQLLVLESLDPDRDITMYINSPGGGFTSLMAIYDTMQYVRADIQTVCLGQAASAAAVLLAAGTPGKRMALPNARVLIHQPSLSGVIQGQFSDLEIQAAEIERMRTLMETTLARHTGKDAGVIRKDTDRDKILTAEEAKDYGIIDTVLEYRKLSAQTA

Assay [1] can be described thus: Inhibition of full-length Staphylococcus aureus ClpP complex expressed in Escherichia coli BL21(DE3) using Suc-LY-AMC as substrate measured for 60 mins in presence of Bz-LL by fluorescence based assay.
Assay [2] can be described thus: Selectivity index, ratio of IC50 for full-length Escherichia coli ClpP complex expressed in Escherichia coli BL21(DE3) using Suc-LY-AMC as substrate to IC50 for N-terminal His6-SUMO-tagged Mtb ClpP1 (7 to 200 residues)/ClpP2 (13 to 214 residues) complex expressed in Escherichia coli BL21(DE3).
The nature of assay [3]: Selectivity index, ratio of IC50 for full-length Staphylococcus aureus ClpP complex expressed in Escherichia coli BL21(DE3) using Suc-LY-AMC as substrate to IC50 for N-terminal His6-SUMO-tagged Mtb ClpP1 (7 to 200 residues)/ClpP2 (13 to 214 residues) complex expressed in Escherichia coli BL21(DE3).
For the next assay, the system named is Staphylococcus aureus. The assay is described as follows: Antibacterial activity against Staphylococcus aureus assessed as bacterial growth inhibition incubated for 24 hrs by broth microdilution method. It is filed as functional. On the technique in general: In broth dilution the organism is exposed to a series of concentrations in liquid medium.
The nature of assay [4]: Inhibition of N-terminal His6-SUMO-tagged Mycobacterium smegmatis ClpP1 (3 to 200 residues)/P2 (17 to 218 residues) expressed in Escherichia coli BL21(DE3)/C1 using Z-Gly-Gly-Leu-AM as substrate measured for 60 mins in presence of Bz-LL by fluorescence based assay. The arrangement: species or system Mycolicibacterium smegmatis.
Assay [5] concerns the target ClpP1P2 (Mycobacterium tuberculosis (strain ATCC 25618 / H37Rv)) (UniProt P9WPC5+P9WPC3). The assay is described as follows: Inhibition of wild-type Mtb ClpP1 expressed in Escherichia coli BL21(DE3).

SMILES strings stand for the structures. Activity calls are given as the source filed them. The rule behind the calls is not given here. Bounds are passed on as bounds.

Turning to `COc1cc2c(Oc3ccc4[nH]c(C)cc4c3F)ncnc2cc1OCCCN1CCCC1` [CEDIRANIB], the values for the IC50 (at ClpP1P2; in assay [1]; in assay [4]) were 45.1 µM, more than 500 µM and 43.9 µM, respectively. In addition, the Ratio IC50 in assay [2] and in assay [3] was more than 170 each time. Moreover, the minimum inhibitory concentration (MIC) in the assay with Staphylococcus aureus is more than 226 µM. In assay [5], the inhibition result was “inactive”.
